“And” between values parts separate entries of the source, which are not always exact repeats. Identical values can stand only once. Toxic doses and inconclusive results are not listed.
Tested on: L1210 leukemia ip in BDF1 mice, survival T/C
Assay: NCI In Vivo Anticancer Drug Screen. Data for tumor model L1210 Leukemia (intraperitoneal) in B6D2F1 (BDF1) mice
Details: endpoint: mean survival time, higher = longer survival
Method in brief: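 In this screen, tumor-bearing mice given compound are compared to those given vehicle, and their survival values are reported as a treated-to-control quotient.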

[1] = dose: 25.0 mg/kg/injection, schedule: Q04DX003 (ip), vehicle: saline
[2] = dose: 50.0 mg/kg/injection, schedule: Q04DX003 (ip), vehicle: saline
[3] = dose: 100.0 mg/kg/injection, schedule: Q04DX003 (ip), vehicle: saline

CCN(CC)CCNc1ccc(C)c2sc3ccccc3c(=O)c12
T/C (dose: 6.25 mg/kg/injection, schedule: Q01DX009 (ip), vehicle: saline): 117 % of control and 118 % of control | T/C (dose: 8.08 mg/kg/injection, schedule: Q01DX Z (ip), vehicle: carboxymethylcellulose (CMC)): 96 % of control | T/C (dose: 10.0 mg/kg/injection, schedule: Q01DX Z (ip), vehicle: other): 95 % of control | T/C (dose: 12.0 mg/kg/injection, schedule: Q01DX006 (iv), vehicle: saline): 98 % of control | T/C (dose: 12.0 mg/kg/injection, schedule: Q01DX Z (im), vehicle: saline): 98 % of control | T/C (dose: 12.0 mg/kg/injection, schedule: Q01DX Z (ip), vehicle: saline): 101 % of control | T/C (dose: 12.0 mg/kg/injection, schedule: Q01DX Z (sc), vehicle: saline): 98 % of control | T/C (dose: 12.5 mg/kg/injection, schedule: Q01DX005 (ip), vehicle: Klucel (hydroxypropylcellulose) (HPC)): 96 % of control and 97 % of control | T/C (dose: 12.5 mg/kg/injection, schedule: Q01DX005 (ip), vehicle: water): 101 % of control | T/C (dose: 13.0 mg/kg/injection, schedule: Q01DX Z (oral), vehicle: carboxymethylcellulose (CMC)): 122 % of control | T/C (dose: 16.17 mg/kg/injection, schedule: Q01DX Z (ip), vehicle: carboxymethylcellulose (CMC)): 104 % of control | T/C (dose: 18.0 mg/kg/injection, schedule: Q01DX Z (ip), vehicle: carboxymethylcellulose (CMC)): 98 % of control | T/C (dose: 18.0 mg/kg/injection, schedule: Q01DX Z (ip), vehicle: methylcellulose (MC)): 107 % of control | T/C (dose: 20.0 mg/kg/injection, schedule: Q01DX Z (ip), vehicle: carboxymethylcellulose (CMC)): 100 % of control and 109 % of control | T/C (dose: 20.0 mg/kg/injection, schedule: Q01DX Z (oral), vehicle: carboxymethylcellulose (CMC)): 112 % of control | T/C (dose: 24.0 mg/kg/injection, schedule: Q01DX Z (im), vehicle: saline): 103 % of control | T/C (dose: 24.0 mg/kg/injection, schedule: Q01DX Z (ip), vehicle: saline): 101 % of control | T/C (dose: 24.0 mg/kg/injection, schedule: Q01DX Z (sc), vehicle: saline): 98 % of control | T/C (dose: 25.0 mg/kg/injection, schedule: Q01DX005 (ip), vehicle: Klucel (hydroxypropylcellulose) (HPC)): 103 % of control and 105 % of control | T/C (dose: 25.0 mg/kg/injection, schedule: Q01DX005 (ip), vehicle: water): 112 % of control | T/C (dose: 25.0 mg/kg/injection, schedule: Q01DX010 (ip), vehicle: saline): 103 % of control and 113 % of control | T/C (dose: 25.0 mg/kg/injection, schedule: Q01DX Z (ip), vehicle: carboxymethylcellulose (CMC)): 109 % of control | T/C (dose: 25.0 mg/kg/injection, schedule: Q04DX003 (ip), vehicle: Klucel (hydroxypropylcellulose) (HPC)): 104 % of control and 110 % of control | T/C [1]: 100 % of control | T/C (dose: 25.0 mg/kg/injection, schedule: Q04DX003 (ip), vehicle: water): 101 % of control | T/C (dose: 25.88 mg/kg/injection, schedule: Q01DX Z (ip), vehicle: carboxymethylcellulose (CMC)): 98 % of control | T/C (dose: 27.0 mg/kg/injection, schedule: Q01DX Z (ip), vehicle: carboxymethylcellulose (CMC)): 108 % of control | T/C (dose: 27.0 mg/kg/injection, schedule: Q01DX Z (ip), vehicle: methylcellulose (MC)): 105 % of control | T/C (dose: 30.0 mg/kg/injection, schedule: Q01DX Z (ip), vehicle: other): 103 % of control | T/C (dose: 32.35 mg/kg/injection, schedule: Q01DX Z (ip), vehicle: carboxymethylcellulose (CMC)): 102 % of control and 103 % of control | T/C (dose: 39.0 mg/kg/injection, schedule: Q01DX Z (ip), vehicle: methylcellulose (MC)): 164 % of control | T/C (dose: 40.0 mg/kg/injection, schedule: Q01DX Z (ip), vehicle: carboxymethylcellulose (CMC)): 114 % of control and 122 % of control and 123 % of control | T/C (dose: 40.0 mg/kg/injection, schedule: Q01DX Z (ip), vehicle: methylcellulose (MC)): 100 % of control | T/C (dose: 43.13 mg/kg/injection, schedule: Q01DX Z (ip), vehicle: carboxymethylcellulose (CMC)): 113 % of control | T/C (dose: 48.0 mg/kg/injection, schedule: Q01DX Z (im), vehicle: saline): 108 % of control | T/C (dose: 48.0 mg/kg/injection, schedule: Q01DX Z (sc), vehicle: saline): 101 % of control | T/C (dose: 50.0 mg/kg/injection, schedule: Q01DX005 (ip), vehicle: Klucel (hydroxypropylcellulose) (HPC)): 114 % of control | T/C (dose: 50.0 mg/kg/injection, schedule: Q01DX005 (ip), vehicle: water): 121 % of control | T/C (dose: 50.0 mg/kg/injection, schedule: Q01DX Z (ip), vehicle: carboxymethylcellulose (CMC)): 121 % of control | T/C (dose: 50.0 mg/kg/injection, schedule: Q04DX003 (ip), vehicle: Klucel (hydroxypropylcellulose) (HPC)): 102 % of control and 119 % of control | T/C [2]: 102 % of control | T/C (dose: 50.0 mg/kg/injection, schedule: Q04DX003 (ip), vehicle: water): 106 % of control | T/C (dose: 58.0 mg/kg/injection, schedule: Q01DX Z (ip), vehicle: methylcellulose (MC)): 222 % of control | T/C (dose: 60.0 mg/kg/injection, schedule: Q01DX Z (ip), vehicle: methylcellulose (MC)): 104 % of control | T/C (dose: 75.0 mg/kg/injection, schedule: Q01DX001 (ip), vehicle: Klucel (hydroxypropylcellulose) (HPC)): 117 % of control | T/C (dose: 75.0 mg/kg/injection, schedule: Q01DX001 (ip), vehicle: saline): 96 % of control and 101 % of control | T/C (dose: 75.0 mg/kg/injection, schedule: Q01DX001 (ip), vehicle: water): 108 % of control | T/C (dose: 90.0 mg/kg/injection, schedule: Q01DX Z (ip), vehicle: methylcellulose (MC)): 100 % of control | T/C (dose: 96.0 mg/kg/injection, schedule: Q01DX Z (im), vehicle: carboxymethylcellulose (CMC)): 111 % of control | T/C (dose: 96.0 mg/kg/injection, schedule: Q01DX Z (im), vehicle: saline): 120 % of control | T/C (dose: 96.0 mg/kg/injection, schedule: Q01DX Z (ip), vehicle: carboxymethylcellulose (CMC)): 111 % of control | T/C (dose: 96.0 mg/kg/injection, schedule: Q01DX Z (ip), vehicle: saline): 165 % of control | T/C (dose: 96.0 mg/kg/injection, schedule: Q01DX Z (sc), vehicle: saline): 115 % of control | T/C (dose: 100.0 mg/kg/injection, schedule: Q01DX001 (ip), vehicle: saline): 104 % of control | T/C (dose: 100.0 mg/kg/injection, schedule: Q01DX005 (ip), vehicle: water): 157 % of control | T/C (dose: 100.0 mg/kg/injection, schedule: Q01DX010 (ip), vehicle: saline): 151 % of control and 166 % of control | T/C [3]: 93 % of control and 116 % of control | T/C (dose: 129.4 mg/kg/injection, schedule: Q01DX Z (ip), vehicle: carboxymethylcellulose (CMC)): 87 % of control | T/C (dose: 140.0 mg/kg/injection, schedule: Q01DX Z (sc), vehicle: carboxymethylcellulose (CMC)): 122 % of control | T/C (dose: 145.0 mg/kg/injection, schedule: Q01DX001 (ip), vehicle: water): 116 % of control | T/C (dose: 150.0 mg/kg/injection, schedule: Q01DX001 (ip), vehicle: Klucel (hydroxypropylcellulose) (HPC)): 107 % of control | T/C (dose: 150.0 mg/kg/injection, schedule: Q01DX001 (ip), vehicle: saline): 94 % of control and 104 % of control | T/C (dose: 150.0 mg/kg/injection, schedule: Q01DX001 (ip), vehicle: water): 120 % of control | T/C (dose: 200.0 mg/kg/injection, schedule: Q01DX001 (ip), vehicle: saline): 110 % of control | T/C (dose: 200.0 mg/kg/injection, schedule: Q01DX009 (ip), vehicle: saline): 105 % of control and 110 % of control | T/C (dose: 200.0 mg/kg/injection, schedule: Q01DX010 (ip), vehicle: saline): 93 % of control and 103 % of control | T/C (dose: 200.0 mg/kg/injection, schedule: Q01DX Z (oral), vehicle: saline): 104 % of control | T/C (dose: 200.0 mg/kg/injection, schedule: Q04DX003 (ip), vehicle: Klucel (hydroxypropylcellulose) (HPC)): 176 % of control and 180 % of control | T/C (dose: 200.0 mg/kg/injection, schedule: Q04DX003 (ip), vehicle: saline): 117 % of control | T/C (dose: 215.0 mg/kg/injection, schedule: Q01DX Z (im), vehicle: carboxymethylcellulose (CMC)): 122 % of control | T/C (dose: 215.0 mg/kg/injection, schedule: Q01DX Z (sc), vehicle: carboxymethylcellulose (CMC)): 111 % of control | T/C (dose: 217.0 mg/kg/injection, schedule: Q01DX001 (ip), vehicle: water): 121 % of control | T/C (dose: 300.0 mg/kg/injection, schedule: Q01DX001 (ip), vehicle: saline): 105 % of control | T/C (dose: 300.0 mg/kg/injection, schedule: Q01DX001 (ip), vehicle: water): 121 % of control | T/C (dose: 320.0 mg/kg/injection, schedule: Q01DX Z (im), vehicle: carboxymethylcellulose (CMC)): 100 % of control and 114 % of control | T/C (dose: 320.0 mg/kg/injection, schedule: Q01DX Z (sc), vehicle: carboxymethylcellulose (CMC)): 102 % of control | T/C (dose: 400.0 mg/kg/injection, schedule: Q01DX001 (ip), vehicle: saline): 188 % of control | T/C (dose: 480.0 mg/kg/injection, schedule: Q01DX Z (im), vehicle: carboxymethylcellulose (CMC)): 90 % of control

O=C(O)/C=C\c1c[nH]c2nccnc12
T/C (dose: 25.0 mg/kg/injection, schedule: Q01DX009 (ip), vehicle: saline): 101 % of control | T/C [1]: 117 % of control | T/C (dose: 50.0 mg/kg/injection, schedule: Q01DX009 (ip), vehicle: saline): 88 % of control | T/C [2]: 115 % of control | T/C [3]: 103 % of control and 106 % of control

From PubChem BioAssay AID248 (DTP/NCI, 2004)
